Results as given in ChEMBL document CHEMBL1138190, “Synthesis and antibacterial activity of novel C12 vinyl ketolides” (J Med Chem, 2006).
Values after ≈ are worked out from the molar mass of the structure shown. Active and inactive are the calls of the source. The calls are words filed in the database; no cut-off is given here.

How the values were obtained:
Streptococcus pneumoniae [1] = assay: Antibacterial activity against Streptococcus pneumoniae Mef 3855; format: functional
Streptococcus pneumoniae [2] = assay: Antibacterial activity against Streptococcus pneumoniae Mef 9959; format: functional
Streptococcus pneumoniae [3] = assay: Antibacterial activity against Streptococcus pneumoniae Erm 5399; format: functional
Streptococcus pneumoniae [4] = assay: Antibacterial activity against Streptococcus pneumoniae Erm 10279; format: functional
[5] = tested on: Staphylococcus epidermidis; assay: Antibacterial activity against Staphylococcus epidermidis 14990; format: functional
Streptococcus pneumoniae [6] = assay: Antibacterial activity against Streptococcus pneumoniae Mef 2880; format: functional
Streptococcus pneumoniae [7] = assay: Antibacterial activity against Streptococcus pneumoniae Mef 3449; format: functional
Streptococcus pyogenes = assay: Antibacterial activity against Streptococcus pyogenes 8668; format: functional
Staphylococcus aureus [8] = assay: Antibacterial activity against Staphylococcus aureus 29213; format: functional
Streptococcus pneumoniae [9] = assay: Antibacterial activity against Streptococcus pneumoniae Mef 5654; format: functional
[10] = Plasma half life in Sprague-Dawley rat at 5 mg/kg, iv; format: ADME, organism-based; parameters: dose 5 mg/kg, route intravenous
Streptococcus pneumoniae [11] = assay: Antibacterial activity against Streptococcus pneumoniae Mef 1566; format: functional
Streptococcus pneumoniae [12] = assay: Antibacterial activity against Streptococcus pneumoniae Mef 9142; format: functional
[13] = Lung-to-plasma AUC ratio in Sprague-Dawley rat at 5 mg/kg, iv; format: ADME, organism-based; parameters: dose 5 mg/kg, route intravenous; conditions: lung and plasma
Haemophilus influenzae [14] = assay: Antibacterial activity against Haemophilus influenzae 49247; format: functional
Streptococcus pneumoniae [15] = assay: Antibacterial activity against Streptococcus pneumoniae Mef 5649; format: functional
Streptococcus pneumoniae [16] = assay: Antibacterial activity against Streptococcus pneumoniae Mef 6966; format: functional
Staphylococcus aureus [17] = assay: Antibacterial activity against Staphylococcus aureus 33591; format: functional
Streptococcus pneumoniae [18] = assay: Antibacterial activity against Streptococcus pneumoniae Erm 5554; format: functional
Streptococcus pneumoniae [19] = assay: Antibacterial activity against Streptococcus pneumoniae Erm 3120; format: functional
Streptococcus pneumoniae [20] = assay: Antibacterial activity against Streptococcus pneumoniae Erm 2218; format: functional
Streptococcus pneumoniae [21] = assay: Antibacterial activity against Streptococcus pneumoniae Erm 8919; format: functional
Streptococcus pneumoniae [22] = assay: Antibacterial activity against Streptococcus pneumoniae Mef S 3435; format: functional
Streptococcus pneumoniae [23] = assay: Antibacterial activity against Streptococcus pneumoniae Mef 1790; format: functional
Rattus norvegicus [24] = assay: Plasma AUC in Sprague-Dawley rat at 5 mg/kg, iv; format: ADME, organism-based; parameters: dose 5 mg/kg, route intravenous; conditions: in vivo
Streptococcus pneumoniae [25] = assay: Antibacterial activity against Streptococcus pneumoniae Erm 6388; format: functional
Streptococcus pneumoniae [26] = assay: Antibacterial activity against Streptococcus pneumoniae Mef 10095; format: functional
Enterococcus faecalis [27] = assay: Antibacterial activity against Enterococcus faecalis bc11148-2; format: functional
Streptococcus pneumoniae [28] = assay: Antibacterial activity against Streptococcus pneumoniae Mef 983; format: functional
Streptococcus pneumoniae [29] = assay: Antibacterial activity against Streptococcus pneumoniae Erm S 4297; format: functional
Streptococcus pneumoniae [30] = assay: Antibacterial activity against Streptococcus pneumoniae 49619; format: functional
Streptococcus pneumoniae [31] = assay: Antibacterial activity against Streptococcus pneumoniae Erm 6849; format: functional
Streptococcus pneumoniae [32] = assay: Antibacterial activity against Streptococcus pneumoniae Erm 4589; format: functional
Enterococcus faecalis [33] = assay: Antibacterial activity against Enterococcus faecalis 29212; format: functional
Streptococcus pneumoniae [34] = assay: Antibacterial activity against Streptococcus pneumoniae Erm 5354; format: functional
Rattus norvegicus [35] = assay: Efficacy against Streptococcus pneumoniae Erm in Sprague-Dawley rat lung infection model at 50 mg/kg; format: functional, organism-based; parameters: dose 50 mg/kg
[36] = Plasma half life in Sprague-Dawley rat at 15 mg/kg, po; format: ADME, organism-based; parameters: dose 15 mg/kg, route oral
[37] = Volume of distribution in Sprague-Dawley rat at 5 mg/kg, iv and 15 mg/kg, po; format: ADME, organism-based; conditions: in vivo, read-out: Vdss
Streptococcus pneumoniae [38] = assay: Antibacterial activity against Streptococcus pneumoniae Mef S 3427; format: functional
Streptococcus pneumoniae [39] = assay: Antibacterial activity against Streptococcus pneumoniae Erm 6396; format: functional
Streptococcus pneumoniae [40] = assay: Antibacterial activity against Streptococcus pneumoniae Mef 4331; format: functional
Streptococcus pneumoniae [41] = assay: Antibacterial activity against Streptococcus pneumoniae Mef 2382; format: functional
Streptococcus pneumoniae [42] = assay: Antibacterial activity against Streptococcus pneumoniae Erm 7985; format: functional
Streptococcus pneumoniae [43] = assay: Antibacterial activity against Streptococcus pneumoniae Erm 4290; format: functional
Streptococcus pneumoniae [44] = assay: Antibacterial activity against Streptococcus pneumoniae Erm 8339; format: functional
Streptococcus pneumoniae [45] = assay: Antibacterial activity against Streptococcus pneumoniae Erm 867; format: functional
[46] = tested on: Staphylococcus epidermidis; assay: Antibacterial activity against Staphylococcus epidermidis f50654; format: functional
Streptococcus pneumoniae [47] = assay: Antibacterial activity against Streptococcus pneumoniae Erm S 4085; format: functional
Streptococcus pneumoniae [48] = assay: Antibacterial activity against Streptococcus pneumoniae 280-962; format: functional
[49] = Oral bioavailability in Sprague-Dawley rat at 15 mg/kg, po; format: ADME, organism-based; conditions: in vivo
Haemophilus influenzae [50] = assay: Antibacterial activity against Haemophilus influenzae 2762; format: functional
Streptococcus pneumoniae [51] = assay: Antibacterial activity against Streptococcus pneumoniae Mef 1556; format: functional
Streptococcus pneumoniae [52] = assay: Antibacterial activity against Streptococcus pneumoniae Erm 5590; format: functional
Streptococcus pneumoniae [53] = assay: Antibacterial activity against Streptococcus pneumoniae Erm 5415; format: functional
Streptococcus pneumoniae [54] = assay: Antibacterial activity against Streptococcus pneumoniae 297-749; format: functional
Streptococcus pneumoniae [55] = assay: Antibacterial activity against Streptococcus pneumoniae Erm 8257; format: functional
Streptococcus pneumoniae [56] = assay: Antibacterial activity against Streptococcus pneumoniae Mef 41; format: functional
Rattus norvegicus [57] = assay: Efficacy against Haemophilus influenzae in Sprague-Dawley rat lung infection model at 50 mg/kg; format: functional, organism-based; parameters: dose 50 mg/kg
Streptococcus pneumoniae [58] = assay: Antibacterial activity against Streptococcus pneumoniae Erm 8947; format: functional
[59] = Lung half life in Sprague-Dawley rat at 15 mg/kg, po; format: ADME, organism-based; parameters: dose 15 mg/kg, route oral
Streptococcus pneumoniae [60] = assay: Antibacterial activity against Streptococcus pneumoniae Mef 953; format: functional
Streptococcus pneumoniae [61] = assay: Antibacterial activity against Streptococcus pneumoniae Mef 4126; format: functional

C=C[C@]12OC(=O)N(CCCCn3cnc(-c4ccc(C)nc4)c3)[C@@H]1[C@@H](C)C(=O)[C@H](C)C[C@@](C)(OC)[C@H](O[C@@H]1O[C@H](C)C[C@H](N(C)C)[C@H]1O)[C@@H](C)C(=O)[C@@H](C)C(=O)O[C@@H]2CC
MIC (Streptococcus pneumoniae [1]): 0.2 mg/L (≈ 0.239 µM) | MIC (Streptococcus pneumoniae [2]): 0.2 mg/L (≈ 0.239 µM) | MIC (Streptococcus pneumoniae [3]): 0.025 mg/L (≈ 0.0298 µM) | MIC (Streptococcus pneumoniae [4]): 0.025 mg/L (≈ 0.0298 µM) | MIC [5]: 0.2 mg/L (≈ 0.239 µM) | MIC (Streptococcus pneumoniae [6]): 0.2 mg/L (≈ 0.239 µM) | MIC (Streptococcus pneumoniae [7]): 0.2 mg/L (≈ 0.239 µM) | MIC (Streptococcus pyogenes): ≤ 0.05 mg/L | MIC (Staphylococcus aureus [8]): 0.2 mg/L (≈ 0.239 µM) | MIC (Streptococcus pneumoniae [9]): 0.4 mg/L (≈ 0.477 µM) | half-life [10]: 1.6 h | MIC (Streptococcus pneumoniae [11]): 0.4 mg/L (≈ 0.477 µM) | MIC (Streptococcus pneumoniae [12]): 0.4 mg/L (≈ 0.477 µM) | Kp [13]: 80 | MIC (Haemophilus influenzae [14]): 3.13 mg/L (≈ 3.73 µM) | MIC (Streptococcus pneumoniae [15]): 0.2 mg/L (≈ 0.239 µM) | MIC (Streptococcus pneumoniae [16]): 0.2 mg/L (≈ 0.239 µM) | MIC (Staphylococcus aureus [17]): > 50 mg/L | MIC (Streptococcus pneumoniae [18]): 0.78 mg/L (≈ 0.931 µM) | MIC (Streptococcus pneumoniae [19]): 0.2 mg/L (≈ 0.239 µM) | MIC (Streptococcus pneumoniae [20]): 0.1 mg/L (≈ 0.119 µM) | MIC (Streptococcus pneumoniae [21]): 0.025 mg/L (≈ 0.0298 µM) | MIC (Streptococcus pneumoniae [22]): <=0.05 ug ml-1 | MIC (Streptococcus pneumoniae [23]): 0.2 mg/L (≈ 0.239 µM) | AUC (Rattus norvegicus [24]): 2.1 µg·h/mL | MIC (Streptococcus pneumoniae [25]): 3.13 mg/L (≈ 3.73 µM) | MIC (Streptococcus pneumoniae [26]): ≤ 0.05 mg/L | MIC (Enterococcus faecalis [27]): 0.78 mg/L (≈ 0.931 µM) | MIC (Streptococcus pneumoniae [28]): 0.4 mg/L (≈ 0.477 µM) | MIC (Streptococcus pneumoniae [29]): 0.025 mg/L (≈ 0.0298 µM) | MIC (Streptococcus pneumoniae [30]): ≤ 0.05 mg/L | MIC (Streptococcus pneumoniae [31]): 0.1 mg/L (≈ 0.119 µM) | MIC (Streptococcus pneumoniae [32]): 0.025 mg/L (≈ 0.0298 µM) | MIC (Enterococcus faecalis [33]): 0.1 mg/L (≈ 0.119 µM) | MIC (Streptococcus pneumoniae [34]): 0.025 mg/L (≈ 0.0298 µM) | Activity (Rattus norvegicus [35]): Active | half-life [36]: 2.4 h | Vd [37]: 14 L/kg | MIC (Streptococcus pneumoniae [38]): 0.2 mg/L (≈ 0.239 µM) | MIC (Streptococcus pneumoniae [39]): 0.1 mg/L (≈ 0.119 µM) | MIC (Streptococcus pneumoniae [40]): 0.4 mg/L (≈ 0.477 µM) | MIC (Streptococcus pneumoniae [41]): 0.1 mg/L (≈ 0.119 µM) | MIC (Streptococcus pneumoniae [42]): ≤ 0.013 mg/L | MIC (Streptococcus pneumoniae [43]): 0.05 mg/L (≈ 0.0597 µM) | MIC (Streptococcus pneumoniae [44]): 1.56 mg/L (≈ 1.86 µM) | MIC (Streptococcus pneumoniae [45]): 0.025 mg/L (≈ 0.0298 µM) | MIC [46]: 0.2 mg/L (≈ 0.239 µM) | MIC (Streptococcus pneumoniae [47]): 0.025 mg/L (≈ 0.0298 µM) | MIC (Streptococcus pneumoniae [48]): ≤ 0.05 mg/L | bioavailability [49]: 35% | MIC (Haemophilus influenzae [50]): 1.56 mg/L (≈ 1.86 µM) | MIC (Streptococcus pneumoniae [51]): ≤ 0.05 mg/L | MIC (Streptococcus pneumoniae [52]): 0.025 mg/L (≈ 0.0298 µM) | MIC (Streptococcus pneumoniae [53]): 0.025 mg/L (≈ 0.0298 µM) | MIC (Streptococcus pneumoniae [54]): ≤ 0.05 mg/L | MIC (Streptococcus pneumoniae [55]): ≤ 0.013 mg/L | MIC (Streptococcus pneumoniae [56]): 0.1 mg/L (≈ 0.119 µM) | Activity (Rattus norvegicus [57]): Active | MIC (Streptococcus pneumoniae [58]): 0.4 mg/L (≈ 0.477 µM) | half-life [59]: 3.4 h | MIC (Streptococcus pneumoniae [60]): 0.1 mg/L (≈ 0.119 µM) | MIC (Streptococcus pneumoniae [61]): ≤ 0.05 mg/L
